This is an account of results in ChEMBL document CHEMBL1201862, “PubChem BioAssay data set” (2004).

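In this assay, cells in 96-well plates receive the compound at five concentrations for 48 hours. Endpoints are linearly interpolated between the surrounding concentrations. At the GI50, growth is halved.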 The source made the active and inactive calls. No stated cut-off is given here; in the data, active = GI50 up to about 1.1 µM and inactive = higher. Residues, ends and D or L forms follow the SMILES beside them.

Common to all, as to assay: NCI-60 cell line screen, 48 h
In assay [1] the test system is NCI-H23.
The subject of assay [2] is MDA-MB-231.
Assay [3] relates to HL-60.
Assay [4] relates to SNB-75.
Assay [5] concerns 786-0.
In assay [6] the test system is HCT-15.
For assay [7], the system named is TK-10.
Assay [8] concerns SR.
Assay [9] relates to CCRF-CEM.
Assay [10] relates to RXF 393.
Assay [11] concerns M14.
Assay [12] concerns SN12C.
The test system of assay [13] is IGROV-1.
For assay [14], the system named is K562.
For assay [15], the system named is COLO 205.
Assay [16] deals with SK-MEL-5.
Assay [17] concerns T47D.
Assay [18] deals with Hs-578T.
Assay [19] relates to SNB-19.
Assay [20] concerns HCT-116.

`Fc1ccc(-c2sc(-c3ccsc3)cc2Cc2ccsc2)cc1`: the GI50 was > 10 µM (inactive) in [1]; > 10 µM (inactive) in assay [2]; > 10 µM (inactive) in assay [3]; > 10 µM (inactive) in [4]; > 10 µM (inactive) in [5]; greater than 10 µM in assay [6]. The GI50 in assay [7], in [8], in assay [9], in [10], in [11] and in [12] was > 10 µM (inactive) each time. For the same molecule, the GI50 in assay [13], in assay [14], in assay [15], in assay [16] and in [17] was > 10 µM (inactive) in each case.

For the molecule `NC1CNC(=O)c2cscc21` (stereo not drawn), the GI50 in [1] was > 100 µM (inactive); in assay [18] it was > 100 µM (inactive); in [3], > 100 µM (inactive); in assay [5] it was > 100 µM (inactive); in [6], greater than 100 µM; in assay [19] it was > 100 µM (inactive). Further, the GI50 in [8], in assay [9], in assay [10], in assay [11], in [20] and in [12] was > 100 µM (inactive) throughout. In addition, the GI50 in assay [13], in assay [14], in assay [15] and in assay [16] was > 100 µM (inactive) each time.

Take `O=[N+]([O-])c1ccc2nc(-c3ccccn3)c(-c3ccccn3)nc2c1`: the GI50 in assay [1] was > 100 µM (inactive); in assay [18] it was > 100 µM (inactive); in assay [3] it was 28 µM (inactive); in assay [4] it was > 100 µM (inactive); in assay [5], > 100 µM (inactive); in assay [6], 43 µM. In addition, the GI50 was > 100 µM (inactive) in assay [19]; > 100 µM (inactive) in assay [7]; 33.1 µM (inactive) in assay [8]; 69.8 µM (inactive) in assay [9]; 86.5 µM (inactive) in assay [10]; 66.7 µM (inactive) in [11]. The GI50 was 38.9 µM (inactive) in [20]; > 100 µM (inactive) in assay [12]; 94.6 µM (inactive) in [13]; 30.5 µM (inactive) in [15]; 24.4 µM (inactive) in [16]; > 100 µM (inactive) in assay [17].

Consider `O=C(CBr)c1ccc2cc(Br)c3ccccc3c2c1`, for which the GI50 was 14.7 µM (inactive) in assay [1]; 18.2 µM (inactive) in [2]; 25.8 µM (inactive) in assay [18]; 25.9 µM (inactive) in [3]; 25.6 µM (inactive) in assay [4]; 37.6 µM (inactive) in assay [5]. In addition, the GI50 in [6] was 36.1 µM; in assay [19], 31.9 µM (inactive); in [7], 21 µM (inactive); in assay [8] it was 12.1 µM (inactive); in assay [9], 33.3 µM (inactive); in assay [10] it was 18.3 µM (inactive). Further, the GI50 was 25.1 µM (inactive) in assay [11]; 40.3 µM (inactive) in assay [20]; 29.6 µM (inactive) in [13]; 26.7 µM (inactive) in [14]; 24.1 µM (inactive) in assay [15]; 14.3 µM (inactive) in assay [16].

As to `CCCCc1ccc(-n2sc3ncc(-c4ccccc4)cc3c2=O)cc1`, the GI50 is > 100 µM (inactive) in assay [1]; > 100 µM (inactive) in assay [3]; > 100 µM (inactive) in assay [4]; > 100 µM (inactive) in [5]; greater than 100 µM in [6]; > 100 µM (inactive) in assay [19]. Moreover, the GI50 in assay [7], in assay [8], in assay [9], in [10], in assay [11] and in [20] was > 100 µM (inactive) throughout. Also, the GI50 in [12] was > 100 µM (inactive); in [13], > 100 µM (inactive); in assay [14] it was > 100 µM (inactive); in assay [15], > 100 µM (inactive); in assay [16], > 100 µM (inactive); in [17], 22.6 µM (inactive).

`Cc1ccnc(Nc2[nH]c(C(=O)c3ccc(Cl)cc3)c(N)c2C(=S)Nc2ccccc2)c1`: the GI50 in assay [1] is 19.3 µM (inactive); in [2], 16.6 µM (inactive); in assay [3], 23.8 µM (inactive); in [4], 18.1 µM (inactive); in [5], 19.1 µM (inactive); in [6], 16.1 µM. Also, the GI50 was 23.4 µM (inactive) in assay [19]; 17.2 µM (inactive) in assay [7]; 12.6 µM (inactive) in assay [8]; 25.8 µM (inactive) in assay [9]; 15.9 µM (inactive) in assay [10]; 16.4 µM (inactive) in assay [11]. Besides, the GI50 was 14.2 µM (inactive) in assay [20]; 15.7 µM (inactive) in [12]; 9.02 µM (inactive) in assay [13]; 18.3 µM (inactive) in assay [14]; 16 µM (inactive) in assay [15]; 19.7 µM (inactive) in [17].

For `CC(=O)n1nc(-c2ccccc2)n(/N=C/c2ccc([N+](=O)[O-])cc2)c1=O`, the GI50 was > 100 µM (inactive) in assay [1]; 35 µM (inactive) in assay [2]; > 100 µM (inactive) in assay [3]; > 100 µM (inactive) in [4]; > 100 µM (inactive) in assay [5]; greater than 100 µM in assay [6]. Also, the GI50 was > 100 µM (inactive) in assay [19]; > 100 µM (inactive) in assay [7]; > 100 µM (inactive) in assay [8]; > 100 µM (inactive) in [9]; 65.9 µM (inactive) in assay [10]; > 100 µM (inactive) in [11]. In addition, the GI50 in [20], in assay [12], in assay [13], in [14], in [15] and in assay [16] was > 100 µM (inactive) throughout. Also, the GI50 in assay [17] was > 100 µM (inactive).

On to `CCC(C)C(NC(=O)C(CCCCN)NC(=O)C(NC(=O)C(CCC(N)=O)NC(=O)C(N)CCCNC(=N)N)C(C)CC)C(=O)NC(Cc1c[nH]c2ccccc12)C(=O)NC(Cc1ccccc1)C(=O)NC(CCC(N)=O)C(=O)NC(CC(N)=O)C(=O)NC(CCCNC(=N)N)C(=O)NC(CCCNC(=N)N)C(=O)NC(CCSC)C(=O)NC(CCCCN)C(=O)NC(Cc1c[nH]c2ccccc12)C(=O)NC(CCCCN)C(=O)NC(CCCCN)C(=O)N1CCCC1C(=O)NC(C)C(=O)NC(CCCCN)C(=O)NC(CCCNC(=N)N)C(=O)NC(CCCCN)C(=O)NC(CC(C)C)C(=O)NC(Cc1ccccc1)C(=O)NCC(=O)O` (stereo not drawn) (H-RQIKIWFQNRRMKWKKPAKRKLFG-OH; configuration not given here), for which the GI50 is > 25 µM (inactive) in assay [1]; 10.5 µM (inactive) in assay [2]; 21.1 µM (inactive) in assay [18]; 6.93 µM (inactive) in assay [3]; > 25 µM (inactive) in [4]; 17.5 µM (inactive) in [5]. Also, the GI50 was greater than 25 µM in assay [6]; > 25 µM (inactive) in [19]; > 25 µM (inactive) in assay [7]; > 25 µM (inactive) in [8]; 12.4 µM (inactive) in [9]; > 25 µM (inactive) in assay [10]. Besides, the GI50 in assay [11] is 12.1 µM (inactive); in assay [20], 16.3 µM (inactive); in [12] it was > 25 µM (inactive); in assay [13] it was > 25 µM (inactive); in assay [14] it was > 25 µM (inactive); in assay [15], > 25 µM (inactive). Moreover, the GI50 in assay [16] is 16.5 µM (inactive).

Take `COc1cc(/C=C2/C(=O)N/C(=N\C(C)=O)N2C)ccc1OC(C)=O`: the GI50 in assay [1] was > 100 µM (inactive); in assay [2], > 100 µM (inactive); in assay [3], 53.3 µM (inactive); in [4], > 100 µM (inactive); in [5], > 100 µM (inactive); in [6] it was greater than 100 µM. For the same molecule, the GI50 was > 100 µM (inactive) in assay [19]; 47.9 µM (inactive) in assay [7]; > 100 µM (inactive) in [11]; > 100 µM (inactive) in assay [20]; > 100 µM (inactive) in [12]; > 100 µM (inactive) in assay [13]. Besides, the GI50 in assay [15], in assay [16] and in assay [17] was > 100 µM (inactive) throughout.

As for `NCCNCCNc1ccc(NCCNCCN)c2c1C(=O)c1c(O)ccc(O)c1C2=O`, the GI50 was > 100 µM (inactive) in [1]; > 100 µM (inactive) in assay [2]; 68.7 µM (inactive) in assay [18]; > 100 µM (inactive) in [4]; > 100 µM (inactive) in assay [5]; greater than 100 µM in [6]. The GI50 is > 100 µM (inactive) in [19]; > 100 µM (inactive) in assay [7]; 2.21 µM (inactive) in assay [8]; 38.9 µM (inactive) in assay [9]; > 100 µM (inactive) in assay [10]; > 100 µM (inactive) in [11]. Also, the GI50 in assay [20], in assay [12], in assay [13], in assay [14], in [15] and in [16] was > 100 µM (inactive) throughout.

In the case of `CCOc1ccccc1/C=C1\NC(=O)N(/C=C2\C(=O)Oc3ccccc3C2=O)C1=O`, the GI50 in assay [1] was 31.3 µM (inactive); in assay [2] it was 44.6 µM (inactive); in assay [18], 46.7 µM (inactive); in [3] it was 20.5 µM (inactive); in [4], 69.2 µM (inactive); in assay [5], 50.9 µM (inactive). Moreover, the GI50 in [6] was 53.8 µM; in assay [19] it was 61.7 µM (inactive); in assay [7], 24.8 µM (inactive); in [9], 24.2 µM (inactive); in [10], 9.82 µM (inactive); in assay [11] it was 51.4 µM (inactive). The GI50 in [20] was 39.1 µM (inactive); in [12], 43.6 µM (inactive); in [13], 35.7 µM (inactive); in assay [15], 47.4 µM (inactive); in [16] it was 23.9 µM (inactive).
